In one data set the test system is Ba/F3-TEL-FLT4 (VEGFR3). The experiment in a line: In vitro proliferation of BaF3 cell line, Ba/F3-TEL-FLT4. It is filed as cell-based. How it is done: The mother solution was prepared into a total of 9 concentration gradients (10.0000 mM, 2.5000 mM, 0.6250 mM, 0.1563 mM, 0.0391 mM, 0.0098 mM, 0.0024 mM, 0.0006 mM and 0.0002 mM) in a 4-fold dilution and stored in a 96-well plate (Beaver, Suzhou), while the same volume of DMSO solvent was used as a negative control. • 1. Cell suspension in logarithmic growth phase was taken and inoculated in a white 96-well cell culture plate (Corning 3917, NY, USA) with a volume of 95 μL per well (2000 cells/well). • 2. Diluted medium-compound mixture was added in a volume of 5 μL per well, respectively, and the final concentration of DMSO in Ba/F3-TEL-FLT1 (VEGFR1), Ba/F3-TEL-FLT4 (VEGFR3) and Ba/F3-TEL-VEGFR2 cells was 0.1%.
• 3. The plate was incubated in a 37° C., 5% CO2 incubator for 72 h. • 4. The proliferation inhibitory activity and data analysis of the compound by CellTiter-Glo method were the same as in Experimental embodiment 1.

Data set [1] relates to Renca subcutaneous xenograft tumor. The data set can be described thus: In vivo antitumor activity, Renca subcutaneous xenograft tumor model. Further details: species or system Balb/c mice. As to the method: Female Balb/c mice (6 to 8 weeks old)
Mouse renal carcinoma Renca cells (ATCC-CRL-2947) were adherent cultured in vitro under the conditions of RPMI 1640 Medium with 10% fetal bovine serum, 0.1 mM non-essential amino acids, 1 mM sodium pyruvate, 2 mM glutamine, 100 U/mL penicillin and 100 µg/mL streptomycin, and cultured in a 37° C., 5% CO2 incubator. Routine passage was performed twice a week. When the cell saturation density was 80% to 90% and the number of cells reached the required level, the cells were collected, counted, and inoculated.
0.1 mL (1×10^5) Renca cells were subcutaneously inoculated on the dorsal side of the right upper limb of each mouse, and grouping and administration were initiated when the average tumor volume reached approximately 50 to 80 mm^3.
Tumor diameters were measured twice a week with vernier calipers. […]
The antitumor efficacy of compounds was evaluated by TGI (%) or relative tumor proliferation rate T/C (%). […] Relative tumor volume (RTV) was calculated according to the results of tumor measurement, and the formula was RTV=Vt/V0, where V0 was the tumor volume measured at the time of grouping and administration (i.e. D0), Vt was the tumor volume of the corresponding mouse in one measurement, and the TRTV and CRTV data were collected on the same day. […]

The nature of data set [2]: Hygroscopicity study by dynamic vapor sorption (DVS). Type of data set: physicochemical. To be noted: 25° C. and 80% RH. How it is done: Instrument model: SMS Intrinsic Dynamic Vapor Sorption Analyzer
Test conditions: Taking a sample (10 to 30 mg) and placing in a DVS sample dish for testing.
Detailed DVS parameters are as follows: • Temperature: 25° C. • Equilibration: dm/dt=0.002%/min (minimum: 10 min, maximum: 180 min) RH range: 0% RH to 95% RH to 0% RH • RH gradient: 10% (90% RH to 0% RH to 90% RH) • 5% (95% RH to 90% RH and 90% RH to 95% RH)

pIC50: −log10 of the molar value.

In the case of `CS(=O)(=O)O.Cn1cc(-c2ccn3c(-c4cc(NS(C)(=O)=O)nc(-c5ccc(F)cc5F)c4)cnc3c2)cn1`, in the data set with Ba/F3-TEL-FLT4 (VEGFR3) (72 h), the Maximum inhibition is 100% and the Minimum inhibition was −2.54%. The pIC50 – broadly, the negative decadic logarithm of the IC50, by convention in mol/L – in the data set with Ba/F3-TEL-FLT4 (VEGFR3) (Mus musculus, BaF3, 72 h, read-out: Relative IC50) is 6.40. In addition, the “effect on tumor growth versus solvent control group” value in data set [1] (Renca model, 100 mg/kg, p=0.031) was “significant inhibitory effect on tumor growth”. The “TGI % (last administration on day 19)” value in data set [1] (Renca xenograft tumor model, 100 mg/kg QD, female Balb/c mice) is recorded as 72%. Besides, the “hygroscopic weight gain ΔW” value in data set [2] worked out at 1.708%.

Values taken from US20240409534A1, “CRYSTAL FORM OF METHYLPYRAZOLE-SUBSTITUTED PYRIDOIMIDAZOLE COMPOUND AND PREPARATION METHOD THEREFOR” (priority 2021, published 2024).
